Test results as given in ChEMBL document CHEMBL1800011, “Anti-leishmanial activity of disubstituted purines and related pyrazolo[4,3-d]pyrimidines” (Bioorg Med Chem Lett, 2011).

Legend:
Leishmania donovani [1] = assay: Inhibition of Leishmania donovani CRK3/CYC6 activity expressed in Escherichia coli using 15 uM ATP at 30 uM
[2] = Inhibition of Leishmania donovani CRK3/CYC6 activity expressed in Escherichia coli using 15 uM ATP
Leishmania donovani [3] = assay: Antileishmanial activity against axenic amastigotes of Leishmania donovani MHOM/SD/1962/1S-Cl2d at 30 uM after 24 hrs by alamar Blue viability assay; assay type: functional
Leishmania donovani [4] = assay: Antileishmanial activity against axenic amastigotes of Leishmania donovani MHOM/SD/1962/1S-Cl2d after 24 hrs by alamar Blue viability assay; assay type: functional, organism-based

Row | Compound | inhibition (Leishmania donovani [1]) [%] | IC50 [2] [µM] | inhibition at 30 µM (Leishmania donovani [3]) [%] | EC50 (Leishmania donovani [4]) [µM]
1 | CC(C)c1n[nH]c2c(NCc3ccccc3O)ncnc12 | 68 | 11.9 | 87.4 | 35.7
2 | CC(C)c1n[nH]c2c(NCc3ccco3)ncnc12 | 28.5 | > 100 | 16.6 | > 100
3 | CC(C)n1cnc2c(Nc3cccc(Cl)c3)ncnc21 | 22.3 | > 100 | 35.1 | 
4 | COc1ccc(CNc2ncnc3c2ncn3C(C)C)cc1OC | -2.3 | > 100 | 1.9 | 
5 | CC(C)c1n[nH]c2c(Nc3ccc(F)cc3)ncnc12 | 78.8 | 6.8 | 75.8 | 11.6
6 | COc1ccc(CNc2ncnc3c2ncn3C(C)C)cc1O | 11.2 | > 100 | 8.8 | 
7 | CC(C)=CCNc1ncnc2c(C(C)C)n[nH]c12 | 32.5 | 57.2 | 45.5 | 85
8 | CC(C)n1cnc2c(NC34CC5CC(CC(C5)C3)C4)ncnc21 | 66.1 | 12.2 | 72 | 
9 | CC(C)n1cnc2c(NCc3ccccc3O)ncnc21 | -2.8 | > 100 | 11.7 | 
10 | CC(C)n1cnc2c(NCc3ccccc3)ncnc21 | 18.5 | > 100 | 19.9 | 
11 | CC(C)n1cnc2c(NC3CCCCC3N)ncnc21 (stereo unspecified) | -5.4 | > 100 | 4.5 | 
12 | COc1ccc(CNc2ncnc3c(C(C)C)n[nH]c23)cc1O | 46.8 | 28.2 | 34.3 | 94
13 | CC(C)c1n[nH]c2c(NCc3ccccc3N)ncnc12 | 42.3 | 58.6 | 41.3 | > 100
14 | CC(C)n1cnc2c(Nc3ccccc3Br)ncnc21 | 1.8 | > 100 | 26.2 | 
15 | COc1cc(CNc2ncnc3c2ncn3C(C)C)ccc1O | 11.9 | > 100 | 9.5 | 
16 | CC(C)c1n[nH]c2c(Nc3ccccc3Br)ncnc12 | 35.6 | 16.1 | 40.7 | 18.7
17 | CC(C)n1cnc2c(NCc3cccc(O)c3)ncnc21 | 8.8 | > 100 | 6.5 | 
18 | CC(C)=CCNc1ncnc2c1ncn2C(C)C | 3.2 | > 100 | 0.04 | 

Row | Compound | inhibition (Leishmania donovani [1]) [%] | IC50 [2] [µM] | inhibition at 30 µM (Leishmania donovani [3]) [%] | EC50 (Leishmania donovani [4]) [µM]
19 | COc1cc(CNc2ncnc3c(C(C)C)n[nH]c23)ccc1O | 41 | 100 | 10.4 | > 100
20 | CC(C)c1n[nH]c2c(Nc3cccc(Cl)c3)ncnc12 | 81.3 | 9.86 | 73.3 | 12.4
21 | CC(C)c1n[nH]c2c(NCc3ccccc3)ncnc12 | 24.5 | 54.2 | 29.6 | 68.6
22 | CC(C)n1cnc2c(Nc3cccc(F)c3)ncnc21 | 30.4 | 49.9 | 16.5 | 
23 | COc1ccc(CNc2ncnc3c(C(C)C)n[nH]c23)cc1 | 36 | 75.5 | 31.5 | 83
24 | CC(C)c1n[nH]c2c(NC34CC5CC(CC(C5)C3)C4)ncnc12 | 93.8 | 1.82 | 73.2 | 1.22
25 | CC(C)n1cnc2c(Nc3ccc(F)cc3)ncnc21 | 53.3 | 22.8 | 21.5 | 
26 | CC(C)c1n[nH]c2c(NCc3cccc(O)c3)ncnc12 | 35.8 | 83.2 | 25.4 | > 100
27 | CC(C)c1n[nH]c2c(NC3CCC(N)CC3)ncnc12 (stereo unspecified) | 35 | > 100 | 3.3 | > 100
28 | COc1ccc(CNc2ncnc3c2ncn3C(C)C)cc1 | -6.9 | > 100 | 15.1 | 
29 | CC(C)c1n[nH]c2c(Nc3cccc(F)c3)ncnc12 | 70.4 | 14.6 | 66.6 | 23.2
30 | CC(C)n1cnc2c(NCc3ccccc3N)ncnc21 | 11 | > 100 | 6.6 | 
31 | CC(C)n1cnc2c(NCc3ccco3)ncnc21 | 3.5 | > 100 | 14.5 | 
32 | CCCCCNc1ncnc2c(C(C)C)n[nH]c12 | 46.5 | > 100 | 27.3 | 54.7
33 | COc1ccc(CNc2ncnc3c(C(C)C)n[nH]c23)cc1OC | 19.9 | > 100 | 8.4 | > 100
34 | CC(C)n1cnc2c(NC3CCC(N)CC3)ncnc21 (stereo unspecified) | 26.4 | > 100 | 1 | 
35 | CCCCCNc1ncnc2c1ncn2C(C)C | 14.8 | > 100 | 22.6 | 
36 | CC(C)c1n[nH]c2c(NC3CCCCC3N)ncnc12 (stereo unspecified) | 2.4 | > 100 | 15.8 | > 100
